Experimental data from US7235584B2, “Non-psychotropic cannabinoids” (Pharmos Corporation, priority 2000, dated 2007).

How the values were obtained:
[1] = tested on: NMDA receptor; assay: [3H]MK-801 displacement radioligand binding, rat forebrain membranes
Protocol: The identification of possible recognition sites for PRS-211 analogs was carried out by measuring the ability of these PRS-211 analogs to inhibit the binding of MK-801 to rat forebrain membranes.
Brains were removed from Sprague-Dawley rats no more than 5 min after decapitation. Membrane preparations were isolated according to a procedure described previously (Eshhar et al., Brain Res. 476:57, 1989). Prior to radioligand binding measurements, endogenous glutamate present in membranes was removed from the preparation by subjecting the membranes to 3–4 successive washings in 10 mM Tris HCl pH 7.2, performed at 4° C.
The specific binding of the new analogs to NMDA receptors was determined by their ability to displace [^3H]MK-801 from NMDA receptor in rat forebrain preparations. Specifically, rat-forebrain membranes (0.1 mg) were incubated for 2 hours at room temperature with 10 nM of tritiated MK-801 and with the PRS-211 compounds at 3 doses each. Non-specific binding was determined by the use of 0.1 mM MK-801. Following the incubation, bound radioligand was separated from unbound by filtration through GF/B filters. The filters were counted in a β-counter and log of analog concentrations versus % of [^3H]MK-801 specific binding was plotted. The IC50 was calculated from this plot.
Binding of [^3H]MK-801 to membranes was carried out in the presence of 30 μM glycine and 10 μM L-glutamate. Membranes (250 μg protein) were resuspended in 50 mM tris-acetate pH 7.4 buffer and incubated with 10 nM [^3H]MK-801, either alone or in the presence of PRS-211 compounds at 0.1–100 μM concentrations for three hours at room temperature (RT). Reaction buffers used in the different radioligand binding studies contained 10% of an ethanol/Emulphor 620/deionized water mixture. The ratio (by volume) of the respective components in the mixture was 20/3/57. This mixture is required for solubilizing PRS-211 compounds at concentrations above 30 μM. Reaction volume was 1 ml. Non-specific [^3H]MK-801 binding was determined in the presence of 100 μM unlabeled MK-801.
Concentration dependence of certain PRS-211 analogs on inhibition of [^3H]MK-801 binding is illustrated in FIG. 1.

[2] = tested on: T1, nitric oxide synthase (NOS); assay: Inhibition of nitric oxide synthase, fluorimetric nitrite assay in LPS-stimulated macrophage supernatants; assay type: cell-based; conditions: macrophage cell cultures
T1 construct: endogenous in cells
Protocol: As one aspect of the anti-oxidative potential of the novel analogs they were tested for their ability to inhibit the enzyme nitric oxide synthase (NOS). This assay can also serve as another indication of the anti-inflammatory cascade, as well as the anti-oxidative mechanisms.
The final products of NOS are Nitrite (NO2) and Nitrate (NO3). The in vitro fluorimetric assay provides an accurate method for the measurement of the Nitrite, which is the majority of NO products. The principle of the fluorimetric assay is based on the addition of DAN (2,3-diaminonaphthalene) to the aliquots of the supernatants collected from macrophage cell cultures incubated with the new analogs and stimulated with LPS. Following, NaOH was added to convert Nitrite to a fluorescent compound 1(H)-naphthtriazole. The fluorescence was measured immediately in a fluorimeter using excitation wavelength of 365 nm and an emission wavelength of 450 nm.

[3] = tested on: tail flick model in mice; assay: Tail flick model: analgesic effect and tolerance to morphine; assay type: in vivo, ICR male mice; conditions: for analgesic activity administered separately: escalating doses of up to 10 mg/kg i.p.
From the text: A mice model of acute pain, the tail flick model, was used to test the ability of compounds to prolong the analgesic activity of opioids, by preventing the development of tolerance, and their ability to reverse established tolerance.
The following animal model of acute pain was used to assess the potential analgesic effects of test compounds either alone or in combination with morphine. […] In this model the nociceptive stimulus is thermal and the latency time till the animal flicks its tail is monitored (Le Bars D., Gozariu M. & Cadden S. W., Pharmacol. Rev. 53: 597–652, 2001).
Hyperalgesia to radiant heat was assessed as follows. ICR male mice (20–30 g average body weight, Harlan, Israel) were injected with test compounds i.p. at the volume dose of 5 ml/kg. Each treatment group contained at least 6 animals. The test compounds were dissolved in Cremophor®:ethanol (70:30 weight/weight) and diluted 1:20 in saline prior to injection. Morphine HCl was directly dissolved in saline. Its vehicle was also included as control. Pain threshold was determined 30 minutes post-administration by measuring the foot-withdrawal latency defined as the time from the onset of radiant heat to foot withdrawal. The cut-off time was preset to 10 seconds in order to prevent tissue damage. […] Test compounds (5 mg/kg) and vehicle (5 ml/kg) were administered 15 minutes before morphine and pain threshold was determined 30 minutes after the first injection of morphine on day 1, 5, 8 and 10. […] Pain threshold was determined on day 1 and 10.
In each type of study, the animals were tested on given days 30 minutes after morphine injection in the tail flick apparatus (Socrel, model DS 20). Animals were gently held while their tails were located above the photoelectric cell. The tails were then illuminated (21V) at 2 cm from the distal tip and the latency time, measured in seconds, was recorded in duplicates. The results are expressed either as absolute latency time or as percent of animals that enjoyed significant analgesia as measured by the fact that their latency time is at least twice the latency time for vehicle treated animals. At the end of the study, the animals were euthanized by i.p. injection of 100 mg/kg sodium pentobarbitone.
The differences between the latency times among various treatment groups was analyzed by analysis of variance (ANOVA) followed by post-hoc Duncan test. The differences between the % of animals showing analgesia among various treatment groups was analyzed by analysis of variance (ANOVA) followed by post-hoc Fisher exact test. A value of p<0.05 is considered to be statistically significant.

T1 sequence (P35228 whole entry): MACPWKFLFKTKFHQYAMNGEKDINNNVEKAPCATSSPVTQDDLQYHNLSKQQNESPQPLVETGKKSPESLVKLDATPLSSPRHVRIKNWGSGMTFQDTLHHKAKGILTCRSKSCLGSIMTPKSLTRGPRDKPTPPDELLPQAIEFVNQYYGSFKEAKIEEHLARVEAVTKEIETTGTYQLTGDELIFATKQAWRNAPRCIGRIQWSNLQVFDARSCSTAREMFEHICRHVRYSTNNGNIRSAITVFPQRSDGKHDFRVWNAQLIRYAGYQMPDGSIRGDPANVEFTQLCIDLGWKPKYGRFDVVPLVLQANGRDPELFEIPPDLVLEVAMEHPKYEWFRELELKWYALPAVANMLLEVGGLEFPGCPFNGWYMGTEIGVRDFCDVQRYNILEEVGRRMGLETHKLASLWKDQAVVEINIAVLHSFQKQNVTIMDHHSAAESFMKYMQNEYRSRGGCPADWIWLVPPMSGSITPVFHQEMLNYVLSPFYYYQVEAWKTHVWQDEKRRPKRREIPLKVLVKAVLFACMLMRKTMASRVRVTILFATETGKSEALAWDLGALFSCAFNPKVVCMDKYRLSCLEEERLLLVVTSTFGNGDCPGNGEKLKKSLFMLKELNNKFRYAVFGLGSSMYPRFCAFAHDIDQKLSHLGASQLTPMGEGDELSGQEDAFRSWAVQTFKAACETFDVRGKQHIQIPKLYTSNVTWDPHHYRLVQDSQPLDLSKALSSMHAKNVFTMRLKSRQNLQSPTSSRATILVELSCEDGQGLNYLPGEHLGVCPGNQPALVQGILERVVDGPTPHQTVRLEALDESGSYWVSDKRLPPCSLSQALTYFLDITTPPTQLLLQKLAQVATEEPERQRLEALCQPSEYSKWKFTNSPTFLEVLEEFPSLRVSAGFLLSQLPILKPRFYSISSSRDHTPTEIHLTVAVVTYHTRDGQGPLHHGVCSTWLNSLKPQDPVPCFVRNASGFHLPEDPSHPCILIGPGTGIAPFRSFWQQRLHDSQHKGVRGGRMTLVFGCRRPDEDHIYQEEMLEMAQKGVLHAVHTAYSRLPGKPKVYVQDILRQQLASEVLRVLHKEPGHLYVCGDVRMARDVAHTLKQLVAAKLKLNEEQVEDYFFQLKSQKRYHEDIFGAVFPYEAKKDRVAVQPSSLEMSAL

Row | Structure (SMILES) | NMDA receptor binding / affinity (in words) [1] | inhibition at 10 µM [2] | analgesic activity administered separately [3] | Ki ([1]; rat forebrain membranes, read-out: inhibition constant (KI) of [3H]MK-801 binding) | IC50 ([1]; rat forebrain membranes, read-out: mean IC50 of [3H]MK-801 binding (FIG. 2)) | development of tolerance to morphine ([3]; 5 mg/kg in combination with 10 mg/kg i.p. morphine over 10 days) | reversal of established tolerance to morphine ([3]; in combination with morphine from day 11, tested day 12, 15, 17, PRS-211,220 5 mg/kg, dextromethorphan 20 mg/kg)
1 | CCCCCCC(C)(C)c1cc(O)c2c(c1)OC(C)(C)C1CC=C(CSc3ncc[nH]3)CC21 (single isomer, unassigned; (+)) [211,092-000] | low affinity | 86% | no significant analgesic activity |  |  |  | 
2 | CCCCCCC(C)(C)c1cc(O)c2c(c1)OC(C)(C)C1CC=C(Cn3ccnc3)CC21.Cl (single isomer, unassigned; (+)) [211,095-000, (+)-(3S ,4S )-6,6-Dimethyl-(1,1-dimethylheptyl)-1-hydroxy-9-(imidazolomethyl)-6a,7,10,10a-tetrahydro-6H-dibenzo[b,d]pyran] | relatively high affinity | 34% | no significant analgesic activity |  |  |  | 
3 | CCCCCCC(C)(C)c1cc(O)c2c(c1)OC(C)(C)[C@H]1CC=C(CO)CC21 (stereo partly drawn) [211,007-000, 1,1 dimethyl heptyl-(3S,4S)-7-hydroxy-Δ^6-tetrahydrocannabinol] | competes with the binding of MK-801 to membranes | 20% |  | 11 ± 1.3 µM | 10 µM |  | 
4 | CCCCCCC(C)(C)c1cc(O)c2c(c1)OC(C)(C)[C@H]1CC=C(Cn3cccn3)C[C@H]21 [211,220-000, (+)-(3S,4S)-6,6-Dimethyl-(1,1-dimethylheptyl)-1-hydroxy-9-(pyrazolomethyl)-6a,7,10,10a-tetrahydro-6H-dibenzo[b,d]pyran] | relatively high affinity | 24% | no significant analgesic activity |  |  | effective in reducing the development of tolerance toward opioid | trend of reversal at all time points tested which became statistically significant on day 17
